Experimental data reported in ChEMBL document CHEMBL3259703, “Synthesis and preliminary biological evaluation of 1,2,3-triazole-Jaspine B hybrids as potential cytotoxic agents” (Eur J Med Chem, 2014).

How the values were obtained:
Format in all cases: functional, cell-based
MGC-803 = assay: Antiproliferative activity against human MGC803 cells after 48 hrs by MTT assay; details: MGC-803, 48 h
MCF7 = assay: Antiproliferative activity against human MCF7 cells after 48 hrs by MTT assay; details: MCF7, 48 h
[1] = Antiproliferative activity against human EC9706 cells after 48 hrs by MTT assay; details: EC9706, 48 h

CCCCCCCCCCn1cc(COC[C@@H]2OC[C@H](N)[C@@H]2O)nn1
IC50 (MGC-803): 8.78 µM | IC50 (MCF7): 9.64 µM | IC50 [1]: 15.6 µM

O=c1[nH]cc(F)c(=O)[nH]1 [FLUOROURACIL]
IC50 (MGC-803): 11.3 µM | IC50 (MCF7): 3.52 µM | IC50 [1]: 9.45 µM

CCCCCCCCn1cc(COC[C@@H]2OC[C@H](N)[C@@H]2O)nn1
IC50 (MGC-803): 70.4 µM | IC50 (MCF7): 28.1 µM | IC50 [1]: 44.3 µM

CCCCCCCCCn1cc(COC[C@@H]2OC[C@H](N)[C@@H]2O)nn1
IC50 (MGC-803): 13.8 µM | IC50 (MCF7): 12.4 µM | IC50 [1]: 20.1 µM

CCCCCCCCCCCCCCn1cc(COC[C@@H]2OC[C@H](N)[C@H]2O)nn1
IC50 (MGC-803): 8.79 µM | IC50 (MCF7): 2.45 µM | IC50 [1]: 6.68 µM

CCCCCCCCCCCCCCCCCCn1cc(COC[C@@H]2OC[C@H](N)[C@@H]2O)nn1
IC50 (MGC-803): 15.4 µM | IC50 (MCF7): 7.58 µM | IC50 [1]: 17.8 µM

CCCCCCCCCCCCCCn1cc(COC[C@@H]2OC[C@H](N)[C@@H]2O)nn1
IC50 (MGC-803): 8.21 µM | IC50 (MCF7): 1.85 µM | IC50 [1]: 7.83 µM

CCCCCCCCCCCCn1cc(COC[C@@H]2OC[C@H](N)[C@H]2O)nn1
IC50 (MGC-803): 115 µM | IC50 (MCF7): 2.62 µM | IC50 [1]: 93.8 µM

CCCCCCCCCCCCCCCCn1cc(COC[C@@H]2OC[C@H](N)[C@@H]2O)nn1
IC50 (MGC-803): 27.9 µM | IC50 (MCF7): 3.3 µM | IC50 [1]: 20 µM
